Where a SMILES comes first, the peptide text is derived from it. Bridges are numbered along the chain shown (N, C = ends). [ ]: non-standard residue; d: D form. NMeY = CN[C@@H](Cc1ccc(O)cc1)C(=O)O; R8 = C=CCCCCCC[C@@](C)(N)C(=O)O; S5 = C=CCCC[C@](C)(N)C(=O)O; Nle = CCCC[C@H](N)C(=O)O; Aib = CC(C)(N)C(=O)O
Each compound was assayed against T1, human GHRH receptor (hGHRHR) (Homo sapiens, UniProt Q02643) (assay: GHRHR agonism measured by cAMP (HTRF) in human 293 cells expressing hGHRHR). Settings: 30 min at RT.
T1 construct: expressed in transfected cells; host or cells: Human 293 cells
T1 sequence (Q02643 23-423): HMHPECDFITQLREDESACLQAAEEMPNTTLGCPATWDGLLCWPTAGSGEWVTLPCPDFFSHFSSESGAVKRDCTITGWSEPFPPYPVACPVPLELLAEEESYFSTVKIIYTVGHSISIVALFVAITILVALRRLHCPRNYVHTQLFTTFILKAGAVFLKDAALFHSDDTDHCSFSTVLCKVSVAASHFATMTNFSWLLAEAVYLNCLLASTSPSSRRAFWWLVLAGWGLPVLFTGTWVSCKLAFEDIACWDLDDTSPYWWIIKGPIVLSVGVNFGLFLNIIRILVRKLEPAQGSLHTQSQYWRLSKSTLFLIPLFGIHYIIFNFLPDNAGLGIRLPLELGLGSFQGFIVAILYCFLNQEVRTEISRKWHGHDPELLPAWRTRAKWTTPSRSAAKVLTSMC
Type: cell-based
Protocol: GHRH (1-29) and cross-linked peptidomimetic macrocycles were tested for agonism at the human GHRH receptor (hGHRHR) at various concentrations. Human 293 cells transiently or stably expressing hGHRHR were detached from cell culture flasks with versene (Life Technologies™), suspended in serum-free medium (50 k cells/assay point), and stimulated for 30 min at RT with GHRH (1-29) (Bachem™) or cross-linked peptidomimetic macrocycles. cAMP was quantified using an HTRF®-based assay (CisBio) and used according to the manufacturer's instructions. An EC50 for each agonist was calculated from a non-linear fit of response vs dose (GraphPad™ Prism). The maximum response was determined by stimulating with 10 μM GHRH (1-29). (+=>50 nm; ++=>25-50 nm; +++=>10-25 nm; ++++=>1-10 nm; +++++=≤1 nm).
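Further: receptor expressed transiently or stably, cells stimulated in serum-free medium, EC50 from a non-linear dose-response fit, maximal response defined by reference GHRH stimulation.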

Question: `CCCC[C@H](NC(=O)[C@@H](NC(=O)[C@H](CC(=O)O)NC(=O)[C@H](CCC(N)=O)NC(=O)[C@H](CC(C)C)NC(=O)[C@]1(C)CCCC=CCCCCCC[C@@](C)(NC(=O)[C@H](CC(C)C)NC(=O)[C@@H](NC(=O)[C@H](CCCCN)NC(=O)[C@H](CCCNC(=N)N)NC(=O)[C@H](Cc2ccc(O)cc2)NC(=O)[C@H](CO)NC(=O)[C@H](C)NC(=O)[C@@H](NC(=O)[C@H](Cc2ccccc2)NC(=O)[C@@H](NC(=O)[C@H](C)NC(=O)[C@H](CC(=O)O)NC(=O)[C@H](C)NC(=O)[C@H](Cc2ccc(O)cc2)NC)[C@@H](C)CC)[C@@H](C)O)C(C)C)C(=O)N[C@@H](CCC(N)=O)C(=O)N[C@@H](CC(C)C)C(=O)N[C@@H](CO)C(=O)N[C@@H](C)C(=O)N[C@@H](CCCNC(=N)N)C(=O)N[C@@H](CCCCN)C(=O)N1)[C@@H](C)CC)C(=O)N[C@@H](CO)C(=O)N[C@@H](CCCNC(=N)N)C(N)=O` [SP-27] (H-[NMeY]ADAIFTASYRKVL[R8]QLSARK[S5]LQDI[Nle]SR-NH2; staple 15-22) was tested. Which EC50 did it give?
Answer: 1 to 10 nM

Question: With `CCCC[C@H](NC(=O)[C@@H](NC(=O)[C@H](CC(=O)O)NC(=O)[C@H](C)NC(=O)[C@H](CC(C)C)NC(=O)[C@H](C)NC(=O)[C@H](CCCCN)NC(=O)[C@H](CCCNC(=N)N)NC(=O)[C@H](C)NC(=O)C(C)(C)NC(=O)[C@H](CC(C)C)NC(=O)[C@H](CCC(N)=O)NC(=O)[C@H](C)NC(=O)[C@H](CC(C)C)NC(=O)[C@@H](NC(=O)[C@H](CCCCN)NC(=O)[C@H](CCCNC(=N)N)NC(=O)[C@H](Cc1ccc(O)cc1)NC(=O)[C@H](CO)NC(=O)[C@H](C)NC(=O)[C@@H](NC(=O)[C@H](Cc1ccccc1)NC(=O)[C@@H](NC(=O)[C@H](C)NC(=O)[C@H](CC(=O)O)NC(=O)[C@H](C)NC(=O)[C@H](Cc1ccc(O)cc1)NC)[C@@H](C)CC)[C@@H](C)O)C(C)C)[C@@H](C)CC)C(=O)N[C@@H](CO)C(=O)N[C@@H](CCCNC(=N)N)C(N)=O` [SP-54] (H-[NMeY]ADAIFTASYRKVLAQL[Aib]ARKALADI[Nle]SR-NH2) as the compound, how does the EC50 read?
Answer: 1 to 10 nM

Question: How did the EC50 turn out when `CCCC[C@H](NC(=O)[C@@H](NC(=O)[C@H](CC(=O)O)NC(=O)C(C)(C)NC(=O)[C@H](CC(C)C)NC(=O)[C@H](C)NC(=O)[C@H](CCCCN)NC(=O)[C@H](CCCNC(=N)N)NC(=O)[C@H](C)NC(=O)C(C)(C)NC(=O)[C@H](CC(C)C)NC(=O)[C@H](CCC(N)=O)NC(=O)[C@H](C)NC(=O)[C@H](CC(C)C)NC(=O)[C@@H](NC(=O)[C@H](CCCCN)NC(=O)[C@H](CCCNC(=N)N)NC(=O)[C@H](Cc1ccc(O)cc1)NC(=O)[C@H](CO)NC(=O)C(C)(C)NC(=O)[C@@H](NC(=O)[C@H](Cc1ccccc1)NC(=O)[C@@H](NC(=O)[C@H](C)NC(=O)[C@H](CC(=O)O)NC(=O)[C@H](C)NC(=O)[C@H](Cc1ccc(O)cc1)NC)[C@@H](C)CC)[C@@H](C)O)C(C)C)[C@@H](C)CC)C(=O)N[C@@H](CO)C(=O)N[C@@H](CCCNC(=N)N)C(N)=O` [SP-55] (H-[NMeY]ADAIFT[Aib]SYRKVLAQL[Aib]ARKAL[Aib]DI[Nle]SR-NH2) was run?
Answer: 1 to 10 nM

Question: How did the EC50 turn out when `CCCC[C@H](NC(=O)[C@@H](NC(=O)[C@H](CC(=O)O)NC(=O)[C@H](CCC(N)=O)NC(=O)[C@H](CC(C)C)NC(=O)[C@H](C)NC(=O)[C@H](CCCCN)NC(=O)[C@H](CCCNC(=N)N)NC(=O)[C@]1(C)CCCC=CCCCCCC[C@@](C)(NC(=O)[C@H](CCCNC(=N)N)NC(=O)[C@H](Cc2ccc(O)cc2)NC(=O)[C@H](CO)NC(=O)[C@H](C)NC(=O)[C@@H](NC(=O)[C@H](Cc2ccccc2)NC(=O)[C@@H](NC(=O)[C@H](C)NC(=O)[C@H](CC(=O)O)NC(=O)[C@@H](C)NC(=O)[C@H](Cc2ccc(O)cc2)NC(=O)[C@@H]2CCCN2C(=O)[C@@H]2CCCN2)[C@@H](C)CC)[C@@H](C)O)C(=O)N[C@@H](C(C)C)C(=O)N[C@@H](CC(C)C)C(=O)N[C@@H](C)C(=O)N[C@@H](CCC(N)=O)C(=O)N[C@@H](CC(C)C)C(=O)N[C@@H](CO)C(=O)N1)[C@@H](C)CC)C(=O)N[C@@H](CO)C(=O)N[C@@H](CCCNC(=N)N)C(N)=O` [SP-56] (H-PPY[dA]DAIFTASYR[R8]VLAQLS[S5]RKALQDI[Nle]SR-NH2; staple 14-21) was run?
Answer: > 50 nM

Source: patent US20180371044A1, “PEPTIDOMIMETIC MACROCYCLES” (Aileron Therapeutics, Inc., priority 2015, published 2018)
